Measurements published in PubChem BioAssay (NCI).
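Growth conditions: 96-well plates. Treatment: test compound, 48 hours, 5 concentrations. Analysis: linear interpolation between bracketing concentrations; unreached endpoints set to highest concentration. TGI is the concentration that stops growth completely.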

How the values were obtained:
Experiment in all cases: inhibition of tumour cell growth, NCI panel, 48 h
786-0 renal = system: 786-0 renal
A498 renal = system: A498 renal
A549 NSCLC = system: A549 NSCLC
ACHN renal = system: ACHN renal
CAKI-1 renal = system: CAKI-1 renal
CCRF-CEM leukemia = system: CCRF-CEM leukemia
COLO 205 colon = system: COLO 205 colon
DLD-1 colon = system: DLD-1 colon
DMS 114 small cell lung = system: DMS 114 small cell lung
DMS 273 small cell lung = system: DMS 273 small cell lung
EKVX NSCLC = system: EKVX NSCLC
HCC-2998 colon = system: HCC-2998 colon
HCT-116 colon = system: HCT-116 colon
HCT-15 colon = system: HCT-15 colon
HL-60(TB) leukemia = system: HL-60(TB) leukemia
HOP-62 NSCLC = system: HOP-62 NSCLC
HOP-92 NSCLC = system: HOP-92 NSCLC
HT29 colon = system: HT29 colon
IGROV1 ovarian = system: IGROV1 ovarian
K-562 leukemia = system: K-562 leukemia
KM12 colon = system: KM12 colon
KM20L2 colon = system: KM20L2 colon
LOX IMVI melanoma = system: LOX IMVI melanoma
LXFL 529 NSCLC = system: LXFL 529 NSCLC
M14 melanoma = system: M14 melanoma
M19-MEL melanoma = system: M19-MEL melanoma
MALME-3M melanoma = system: MALME-3M melanoma
MOLT-4 leukemia = system: MOLT-4 leukemia
NCI-H226 lung = system: NCI-H226 lung
NCI-H23 lung = system: NCI-H23 lung
NCI-H460 lung = system: NCI-H460 lung
NCI-H522 lung = system: NCI-H522 lung
OVCAR-3 ovarian = system: OVCAR-3 ovarian
OVCAR-4 ovarian = system: OVCAR-4 ovarian
OVCAR-5 ovarian = system: OVCAR-5 ovarian
OVCAR-8 ovarian = system: OVCAR-8 ovarian
RPMI-8226 leukemia = system: RPMI-8226 leukemia
RXF 393 renal = system: RXF 393 renal
RXF-631 renal = system: RXF-631 renal
SF-268 CNS = system: SF-268 CNS
SF-295 CNS = system: SF-295 CNS
SF-539 CNS = system: SF-539 CNS
SK-MEL-28 melanoma = system: SK-MEL-28 melanoma
SK-MEL-5 melanoma = system: SK-MEL-5 melanoma
SK-OV-3 ovarian = system: SK-OV-3 ovarian
SN12C renal = system: SN12C renal
SNB-19 CNS = system: SNB-19 CNS
SNB-75 CNS = system: SNB-75 CNS
SNB-78 CNS = system: SNB-78 CNS
SW-620 colon = system: SW-620 colon
TK-10 renal = system: TK-10 renal
U251 CNS = system: U251 CNS
UACC-257 melanoma = system: UACC-257 melanoma
UACC-62 melanoma = system: UACC-62 melanoma
UO-31 renal = system: UO-31 renal
HOP-18 NSCLC = system: HOP-18 NSCLC
SK-MEL-2 melanoma = system: SK-MEL-2 melanoma

CC[N+](C)(CC)CC(C)(C)C(=O)/C=C/c1ccc(/C=C/C(=O)C(C)(C)C[N+](C)(CC)CC)cc1
TGI (786-0 renal): > 100 µM
TGI (A498 renal): > 100 µM
TGI (A549 NSCLC): > 100 µM
TGI (ACHN renal): > 100 µM
TGI (CAKI-1 renal): > 100 µM
TGI (CCRF-CEM leukemia): > 100 µM
TGI (COLO 205 colon): > 100 µM
TGI (DLD-1 colon): > 100 µM
TGI (DMS 114 small cell lung): > 100 µM
TGI (DMS 273 small cell lung): > 100 µM
TGI (EKVX NSCLC): > 100 µM
TGI (HCC-2998 colon): > 100 µM
TGI (HCT-116 colon): > 100 µM
TGI (HCT-15 colon): > 100 µM
TGI (HL-60(TB) leukemia): > 100 µM
TGI (HOP-62 NSCLC): > 100 µM
TGI (HOP-92 NSCLC): > 100 µM
TGI (HT29 colon): > 100 µM
TGI (IGROV1 ovarian): > 100 µM
TGI (K-562 leukemia): > 100 µM
TGI (KM12 colon): > 100 µM
TGI (KM20L2 colon): > 100 µM
TGI (LOX IMVI melanoma): > 100 µM
TGI (LXFL 529 NSCLC): > 100 µM
TGI (M14 melanoma): > 100 µM
TGI (M19-MEL melanoma): > 100 µM
TGI (MALME-3M melanoma): > 100 µM
TGI (MOLT-4 leukemia): > 100 µM
TGI (NCI-H226 lung): > 100 µM
TGI (NCI-H23 lung): > 100 µM
TGI (NCI-H460 lung): > 100 µM
TGI (NCI-H522 lung): > 100 µM
TGI (OVCAR-3 ovarian): > 100 µM
TGI (OVCAR-4 ovarian): > 100 µM
TGI (OVCAR-5 ovarian): > 100 µM
TGI (OVCAR-8 ovarian): > 100 µM
TGI (RPMI-8226 leukemia): > 100 µM
TGI (RXF 393 renal): > 100 µM
TGI (RXF-631 renal): > 100 µM
TGI (SF-268 CNS): > 100 µM
TGI (SF-295 CNS): > 100 µM
TGI (SF-539 CNS): > 100 µM
TGI (SK-MEL-28 melanoma): > 100 µM
TGI (SK-MEL-5 melanoma): > 100 µM
TGI (SK-OV-3 ovarian): > 100 µM
TGI (SN12C renal): > 100 µM
TGI (SNB-19 CNS): > 100 µM
TGI (SNB-75 CNS): > 100 µM
TGI (SNB-78 CNS): > 100 µM
TGI (SW-620 colon): > 100 µM
TGI (TK-10 renal): > 100 µM
TGI (U251 CNS): > 100 µM
TGI (UACC-257 melanoma): > 100 µM
TGI (UACC-62 melanoma): > 100 µM
TGI (UO-31 renal): > 100 µM

c1ccc(P(=C2c3ccccc3-c3ccccc32)(c2ccccc2)c2ccccc2)cc1
TGI (786-0 renal): 34 µM
TGI (A549 NSCLC): 29.6 µM
TGI (ACHN renal): 9.82 µM
TGI (CAKI-1 renal): > 100 µM
TGI (CCRF-CEM leukemia): 8.34 µM
TGI (COLO 205 colon): 15 µM
TGI (DLD-1 colon): 65.5 µM
TGI (DMS 114 small cell lung): 7.78 µM
TGI (DMS 273 small cell lung): 19.2 µM
TGI (EKVX NSCLC): 61.3 µM
TGI (HCC-2998 colon): 15.3 µM
TGI (HCT-15 colon): 52.2 µM
TGI (HL-60(TB) leukemia): 4.36 µM
TGI (HOP-18 NSCLC): 80 µM
TGI (HOP-62 NSCLC): 8.17 µM
TGI (HOP-92 NSCLC): 7.4 µM
TGI (HT29 colon): 10.4 µM
TGI (IGROV1 ovarian): > 100 µM
TGI (K-562 leukemia): 6 µM
TGI (KM12 colon): 5.58 µM
TGI (KM20L2 colon): 8.21 µM
TGI (LOX IMVI melanoma): 9.38 µM
TGI (LXFL 529 NSCLC): 20 µM
TGI (M14 melanoma): 32.6 µM
TGI (M19-MEL melanoma): 20.3 µM
TGI (NCI-H23 lung): 9.97 µM
TGI (NCI-H460 lung): 19.2 µM
TGI (NCI-H522 lung): 4.62 µM
TGI (OVCAR-3 ovarian): 6.13 µM
TGI (OVCAR-4 ovarian): > 100 µM
TGI (OVCAR-5 ovarian): 48.3 µM
TGI (OVCAR-8 ovarian): 12.7 µM
TGI (RXF 393 renal): 93.8 µM
TGI (RXF-631 renal): 28.9 µM
TGI (SF-268 CNS): 69 µM
TGI (SF-295 CNS): 16.1 µM
TGI (SF-539 CNS): 36.7 µM
TGI (SK-MEL-2 melanoma): 23.5 µM
TGI (SK-MEL-28 melanoma): 20.2 µM
TGI (SK-MEL-5 melanoma): 3.96 µM
TGI (SK-OV-3 ovarian): 80.1 µM
TGI (SN12C renal): 10.9 µM
TGI (SNB-19 CNS): > 100 µM
TGI (SNB-75 CNS): 83.8 µM
TGI (SW-620 colon): 10.4 µM
TGI (TK-10 renal): 52.2 µM
TGI (U251 CNS): 9.18 µM
TGI (UACC-257 melanoma): 27.3 µM
TGI (UACC-62 melanoma): 14.1 µM
TGI (UO-31 renal): 70.7 µM
